According to ChEMBL document CHEMBL1201862, “PubChem BioAssay data set” (2004):
Active and inactive are the calls of the source.

How the values were obtained:
[1] = target: T1, Mannose-6-phosphate isomerase (Homo sapiens, UniProt P34949); experiment: MPI inhibition at elevated mannose 6-phosphate – biochemical, fluorescence intensity, high mannose 6-phosphate, primary screen (AID 1220)
T1 sequence (P34949 whole entry): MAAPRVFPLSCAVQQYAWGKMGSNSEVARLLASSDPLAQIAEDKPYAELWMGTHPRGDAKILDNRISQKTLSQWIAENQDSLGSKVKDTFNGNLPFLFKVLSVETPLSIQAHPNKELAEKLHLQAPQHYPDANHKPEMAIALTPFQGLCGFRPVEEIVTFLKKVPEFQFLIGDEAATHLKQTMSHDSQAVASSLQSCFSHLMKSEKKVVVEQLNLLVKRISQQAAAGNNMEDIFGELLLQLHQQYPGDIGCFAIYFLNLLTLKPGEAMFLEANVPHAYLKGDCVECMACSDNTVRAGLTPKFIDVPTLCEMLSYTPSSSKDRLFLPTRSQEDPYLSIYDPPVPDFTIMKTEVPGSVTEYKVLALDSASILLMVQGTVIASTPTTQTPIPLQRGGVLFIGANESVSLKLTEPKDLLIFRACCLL

[2] = target: Glucose-6-phosphate 1-dehydrogenase (Homo sapiens, UniProt P11413); experiment: inhibition of Homo sapiens G6PD, dose series – biochemical, fluorescence, selectivity assay for P. falciparum G6PD inhibitor project, dose response (AID 504792); assay type: functional
[3] = target: Hepatocyte nuclear factor 4-alpha (Homo sapiens, UniProt P41235); assay type: functional, cell-based;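 also: biochemical luminescence-based dose-response counterscreen measuring inhibition of HNF4 dimerization, run alongside a screen for blockers of ABHD5–perilipin-5 interaction; split luciferase complementation of HNF4 fusion proteins in cell lysate measuring dimerization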
[4] = Luminescence Cell-Based Dose Response HTS to Identify Inhibitors of 5'UTR Stem-Loop Driven Prion Protein mRNA Translation in H4 Neuroglioblastoma Cells. [Related pubchem assays: 1827 (Project Summary), 1813 (Primary HTS)]; assay type: functional
[5] = alpha-synuclein stem-loop luciferase translation blockers – H4 neuroglioma cells, luminescence, confirmation (AID 1988); assay type: functional, cell-based
[6] = luciferase reporter signal suppression in cells – H4 neuroglioma cells, luminescence, dose response (AID 1990); assay type: functional, cell-based
[7] = inhibition of ARNT PAS-B/TACC3 complex formation – biochemical, AlphaScreen, cherry-picked samples, confirmation (AID 651703); assay type: functional, Homo sapiens;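 also: His-tagged ARNT PAS-B domain paired with GST-TACC3 E629A dimer coactivator fragment; potency of inhibitors that break up the complex and lower AlphaScreen signal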
[8] = target: T2, Interleukin-8 (Homo sapiens, UniProt P10145); experiment: Dose Response confirmation of uHTS small molecule hits for cystic fibrosis induced NFkb Inhibitors in a TNFa-induced IL8 counterscreen.; assay type: functional; settings: read-out: IC50_Mean
T2 sequence (P10145 whole entry): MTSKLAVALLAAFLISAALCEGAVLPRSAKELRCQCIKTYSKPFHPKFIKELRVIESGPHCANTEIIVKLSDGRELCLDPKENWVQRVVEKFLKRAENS

[9] = system: HEK293; experiment: EBV LMP1 TES2 canonical NF-kB signalling blockers – cell-based, HEK293, luciferase, cherry-pick, dose response (AID 588343); assay type: functional; settings: Homo sapiens
[10] = target: T2, Interleukin-8; experiment: Dose Response confirmation of uHTS small molecule hits for cystic fibrosis induced NFkb Inhibitors in a PAF-induced IL8 counterscreen.; assay type: functional; settings: read-out: IC50_Mean
[11] = target: T3, Orexin/Hypocretin receptor type 1 (Homo sapiens, UniProt O43613); experiment: (§1) Fluorescence-based cell-based high throughput dose response assay for antagonists of the orexin 1 receptor (OX1R; HCRTR1). [Related pubchem assays (depositor defined):AID434989, AID435008, AID463079, AID485270, AID492963, AID492964, AID492965, AID493232, AID504717, AID504718]; assay type: functional
T3 sequence (O43613 whole entry): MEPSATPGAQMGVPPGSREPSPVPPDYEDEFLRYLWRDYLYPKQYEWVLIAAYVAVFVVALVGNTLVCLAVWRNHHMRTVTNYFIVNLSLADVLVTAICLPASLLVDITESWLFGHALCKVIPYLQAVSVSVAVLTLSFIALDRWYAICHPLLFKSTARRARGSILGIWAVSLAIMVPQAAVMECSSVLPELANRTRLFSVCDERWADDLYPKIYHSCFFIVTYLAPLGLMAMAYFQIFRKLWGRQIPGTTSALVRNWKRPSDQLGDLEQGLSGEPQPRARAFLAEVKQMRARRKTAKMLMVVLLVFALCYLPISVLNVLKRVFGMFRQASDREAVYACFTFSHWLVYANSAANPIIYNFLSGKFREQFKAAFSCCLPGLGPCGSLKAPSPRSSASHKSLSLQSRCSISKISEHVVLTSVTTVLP

[12] = blockers of HIV-1 envelope-mediated cell-cell fusion – cherry-pick, dose response (AID 652057); assay type: functional, cell-based
[13] = target: T4, Orexin receptor type 2 (Homo sapiens, UniProt O43614); experiment: Counterscreen assay for antagonists of the orexin 1 receptor (OX1R; HCRTR1): Homogeneous Time Resolved Fluorescence (HTRF)-based cell-based dose response assay for antagonists of the orexin 2 receptor (OX2R; HCRTR2), run by assay provider.; assay type: functional
T4 sequence (O43614 whole entry): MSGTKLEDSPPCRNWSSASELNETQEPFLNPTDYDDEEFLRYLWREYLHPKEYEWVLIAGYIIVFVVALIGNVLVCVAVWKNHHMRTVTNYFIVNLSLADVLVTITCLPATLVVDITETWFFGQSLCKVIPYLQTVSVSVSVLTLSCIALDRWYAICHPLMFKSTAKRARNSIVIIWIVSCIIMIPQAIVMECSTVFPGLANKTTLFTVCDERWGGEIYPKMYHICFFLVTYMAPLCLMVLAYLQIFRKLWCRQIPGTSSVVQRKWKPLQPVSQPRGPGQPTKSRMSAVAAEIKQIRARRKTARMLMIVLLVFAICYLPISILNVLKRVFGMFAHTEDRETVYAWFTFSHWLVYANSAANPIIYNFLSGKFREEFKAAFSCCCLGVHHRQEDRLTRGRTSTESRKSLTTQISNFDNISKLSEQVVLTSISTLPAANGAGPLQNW

[14] = HIV-1 AD8 envelope cell-cell fusion blockers – cherry-pick, dose response (AID 652062); assay type: functional, cell-based;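 also: luciferase signal from cell-cell fusion driven by HIV-1 clade B AD8 Env; potency is for inhibitors of fusion seen as a drop in luminescence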
[15] = target: T4, Orexin receptor type 2; experiment: Counterscreen assay for antagonists of the orexin 1 receptor (OX1R; HCRTR1): Fluorescence-based cell-based dose response assay for antagonists of the orexin 2 receptor (OX2R; HCRTR2), run by assay provider.; assay type: functional
[16] = (§2) Counterscreen for antagonists of the orexin 1 receptor (OX1R; HCRTR1): Fluorescence-based cell-based high throughput dose response assay to identify antagonists of the parental CHO cell line. [Related pubchem assays (depositor defined):AID434989, AID435008, AID463079, AID485270, AID492963, AID492964, AID492965, AID493232, AID504699, AID504701]; assay type: functional
[17] = system: CHO-K1; experiment: as §2, with “Homogeneous time resolved fluorescence (HTRF)-based” for “Fluorescence-based”, “cell-based” for “cell-based high throughput”, “CHO-K1” for “CHO”; assay type: functional; settings: Cricetulus griseus;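 also: potency for inhibition of ATP-stimulated IP1 production as antagonists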
[18] = target: T3, Orexin/Hypocretin receptor type 1; experiment: as §1, with “Homogeneous Time Resolved Fluorescence (HTRF)-based” for “Fluorescence-based”; assay type: functional
[19] = target: Adenosylmethionine-8-amino-7-oxononanoate aminotransferase (Mycobacterium tuberculosis, UniProt P9WQ81); experiment: Mycobacterium tuberculosis BioA enzyme inhibitor Measured in Biochemical System Using Plate Reader - 2163-02_Inhibitor_Dose_CherryPick_Activity.; assay type: functional, Mycobacterium tuberculosis UT205
[20] = cAMP pathway inhibition in counterscreen cell line – TR-FRET cAMP detection, counter-screen for MC4R biased antagonist project, dose response (AID 602305); assay type: functional, cell-based;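 also: U2OS cells stimulated with forskolin near its EC80 as the cAMP inducer; potency is for inhibition of forskolin-stimulated cAMP signaling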
[21] = target: T5, Melanocortin receptor 4 (Homo sapiens, UniProt P32245); experiment: inhibitors of MC4R cAMP signaling – cell-based, TR-FRET, biased antagonists, dose response (AID 602298); assay type: functional;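 also: antagonist potency against agonist-stimulated cAMP production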
[22] = target: Ras and Rab interactor 1/Tyrosine-protein kinase ABL1 (Homo sapiens, UniProt P00519+Q13671); assay type: functional;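 also: biochemical TR-FRET dose-response test measuring inhibition of binding between Rin1 and Abl proteins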
[23] = target: T6, Histone-lysine N-methyltransferase NSD2 (Homo sapiens, UniProt O96028); assay type: biochemical
T6 sequence (O96028 whole entry): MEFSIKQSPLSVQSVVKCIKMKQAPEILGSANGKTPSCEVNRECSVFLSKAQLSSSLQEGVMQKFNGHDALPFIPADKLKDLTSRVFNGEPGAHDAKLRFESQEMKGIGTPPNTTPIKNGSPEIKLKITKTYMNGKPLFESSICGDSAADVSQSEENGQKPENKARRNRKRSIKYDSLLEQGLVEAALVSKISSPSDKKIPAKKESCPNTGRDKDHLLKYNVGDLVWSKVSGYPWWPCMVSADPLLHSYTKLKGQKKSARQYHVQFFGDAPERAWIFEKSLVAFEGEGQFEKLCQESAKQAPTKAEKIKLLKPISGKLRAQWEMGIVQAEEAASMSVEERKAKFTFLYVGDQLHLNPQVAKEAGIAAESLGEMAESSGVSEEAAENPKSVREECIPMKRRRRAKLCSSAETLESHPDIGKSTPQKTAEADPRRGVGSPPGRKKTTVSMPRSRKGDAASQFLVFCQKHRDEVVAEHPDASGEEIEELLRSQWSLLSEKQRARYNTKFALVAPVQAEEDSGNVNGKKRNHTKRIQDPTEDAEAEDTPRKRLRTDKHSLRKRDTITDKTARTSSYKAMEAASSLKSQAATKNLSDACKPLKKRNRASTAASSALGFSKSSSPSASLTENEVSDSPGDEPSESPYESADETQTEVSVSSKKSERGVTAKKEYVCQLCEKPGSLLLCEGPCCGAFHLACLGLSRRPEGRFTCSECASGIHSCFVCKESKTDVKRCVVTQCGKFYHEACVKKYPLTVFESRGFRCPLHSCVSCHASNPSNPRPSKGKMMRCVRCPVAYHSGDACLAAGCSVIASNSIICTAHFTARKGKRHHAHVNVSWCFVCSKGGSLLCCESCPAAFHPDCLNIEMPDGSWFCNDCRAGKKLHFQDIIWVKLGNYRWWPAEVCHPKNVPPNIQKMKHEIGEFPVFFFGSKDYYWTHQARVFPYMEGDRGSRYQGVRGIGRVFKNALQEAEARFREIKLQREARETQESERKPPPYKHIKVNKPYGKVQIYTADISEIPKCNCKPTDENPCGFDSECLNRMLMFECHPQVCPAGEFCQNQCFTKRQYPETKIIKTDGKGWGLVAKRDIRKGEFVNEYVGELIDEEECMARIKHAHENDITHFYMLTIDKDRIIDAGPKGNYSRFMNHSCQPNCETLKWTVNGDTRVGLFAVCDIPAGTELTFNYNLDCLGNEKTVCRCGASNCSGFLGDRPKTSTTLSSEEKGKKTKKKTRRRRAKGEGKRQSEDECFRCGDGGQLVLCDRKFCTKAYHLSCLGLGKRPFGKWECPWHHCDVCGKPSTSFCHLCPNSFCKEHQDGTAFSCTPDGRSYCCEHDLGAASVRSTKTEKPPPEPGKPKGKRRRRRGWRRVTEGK

[24] = target: T5, Melanocortin receptor 4; assay type: functional, cell-based
[25] = target: Mitogen-activated protein kinase 10 (Homo sapiens, UniProt P53779); experiment: Dose response biochemical screening assay for inhibitors of c-Jun N-Terminal Kinase 3 (JNK3). [Related pubchem assays: 746 ]
Mitogen-activated protein kinase 10, sequence (P53779 whole entry): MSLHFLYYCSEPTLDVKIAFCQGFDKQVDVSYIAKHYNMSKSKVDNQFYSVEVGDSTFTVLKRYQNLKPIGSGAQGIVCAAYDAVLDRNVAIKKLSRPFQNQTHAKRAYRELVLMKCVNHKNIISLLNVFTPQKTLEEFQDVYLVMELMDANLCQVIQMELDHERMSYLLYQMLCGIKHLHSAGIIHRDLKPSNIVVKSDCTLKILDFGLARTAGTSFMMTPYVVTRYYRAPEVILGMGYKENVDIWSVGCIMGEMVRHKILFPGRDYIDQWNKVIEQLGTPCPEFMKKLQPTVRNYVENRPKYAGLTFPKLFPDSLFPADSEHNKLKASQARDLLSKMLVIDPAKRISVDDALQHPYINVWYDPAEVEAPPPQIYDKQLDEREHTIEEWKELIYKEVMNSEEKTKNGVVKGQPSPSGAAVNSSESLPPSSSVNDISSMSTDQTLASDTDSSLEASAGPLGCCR

T5 sequence (P32245 whole entry): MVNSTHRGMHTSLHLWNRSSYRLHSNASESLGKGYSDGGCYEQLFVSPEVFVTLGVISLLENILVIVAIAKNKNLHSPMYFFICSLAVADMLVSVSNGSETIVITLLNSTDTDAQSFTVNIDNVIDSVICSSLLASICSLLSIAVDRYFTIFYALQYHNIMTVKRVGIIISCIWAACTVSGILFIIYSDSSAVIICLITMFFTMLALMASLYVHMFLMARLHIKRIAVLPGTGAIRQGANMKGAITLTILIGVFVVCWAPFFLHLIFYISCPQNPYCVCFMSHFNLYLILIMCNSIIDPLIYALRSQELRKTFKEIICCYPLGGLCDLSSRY
Hepatocyte nuclear factor 4-alpha, sequence (P41235 whole entry, the tested form may be a part): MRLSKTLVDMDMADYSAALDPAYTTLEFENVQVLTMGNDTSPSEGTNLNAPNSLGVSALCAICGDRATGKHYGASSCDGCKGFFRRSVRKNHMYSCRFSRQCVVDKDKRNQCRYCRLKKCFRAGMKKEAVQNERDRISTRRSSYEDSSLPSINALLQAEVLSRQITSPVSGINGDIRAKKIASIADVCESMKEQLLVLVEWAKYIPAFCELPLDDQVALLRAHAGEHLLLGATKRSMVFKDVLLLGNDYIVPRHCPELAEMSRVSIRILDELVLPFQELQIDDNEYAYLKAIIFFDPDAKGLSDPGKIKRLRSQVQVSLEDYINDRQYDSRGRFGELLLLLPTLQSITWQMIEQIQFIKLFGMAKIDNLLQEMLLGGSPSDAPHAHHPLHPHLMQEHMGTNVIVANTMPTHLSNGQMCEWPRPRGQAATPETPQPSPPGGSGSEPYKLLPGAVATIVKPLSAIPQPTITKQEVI
Adenosylmethionine-8-amino-7-oxononanoate aminotransferase, sequence (P9WQ81 whole entry): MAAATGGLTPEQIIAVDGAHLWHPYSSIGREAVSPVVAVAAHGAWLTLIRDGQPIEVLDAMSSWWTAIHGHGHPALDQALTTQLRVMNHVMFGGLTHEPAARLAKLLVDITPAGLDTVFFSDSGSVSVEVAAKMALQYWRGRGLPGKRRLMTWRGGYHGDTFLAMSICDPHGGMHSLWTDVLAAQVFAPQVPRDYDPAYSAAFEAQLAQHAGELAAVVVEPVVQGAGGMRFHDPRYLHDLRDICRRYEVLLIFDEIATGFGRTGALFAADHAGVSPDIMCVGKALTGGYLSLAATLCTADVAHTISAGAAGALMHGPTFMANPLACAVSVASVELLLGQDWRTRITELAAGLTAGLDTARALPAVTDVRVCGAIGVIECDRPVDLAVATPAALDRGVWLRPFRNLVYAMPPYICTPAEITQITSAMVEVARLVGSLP
Glucose-6-phosphate 1-dehydrogenase, sequence (P11413 whole entry, the tested form may be a part): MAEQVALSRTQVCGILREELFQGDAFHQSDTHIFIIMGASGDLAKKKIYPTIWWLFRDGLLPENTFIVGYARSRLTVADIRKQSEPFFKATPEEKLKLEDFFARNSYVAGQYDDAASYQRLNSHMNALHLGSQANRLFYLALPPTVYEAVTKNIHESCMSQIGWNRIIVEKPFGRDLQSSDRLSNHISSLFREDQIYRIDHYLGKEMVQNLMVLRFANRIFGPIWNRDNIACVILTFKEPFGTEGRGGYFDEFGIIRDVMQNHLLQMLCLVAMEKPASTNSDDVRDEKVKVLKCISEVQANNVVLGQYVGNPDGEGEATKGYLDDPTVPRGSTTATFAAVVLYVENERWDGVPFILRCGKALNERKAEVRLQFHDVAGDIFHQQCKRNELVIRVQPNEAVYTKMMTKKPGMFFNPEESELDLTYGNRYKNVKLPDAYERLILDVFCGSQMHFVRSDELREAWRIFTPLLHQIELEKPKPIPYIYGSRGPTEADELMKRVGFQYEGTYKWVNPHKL
Ras and Rab interactor 1/Tyrosine-protein kinase ABL1, sequence (P00519 whole entry): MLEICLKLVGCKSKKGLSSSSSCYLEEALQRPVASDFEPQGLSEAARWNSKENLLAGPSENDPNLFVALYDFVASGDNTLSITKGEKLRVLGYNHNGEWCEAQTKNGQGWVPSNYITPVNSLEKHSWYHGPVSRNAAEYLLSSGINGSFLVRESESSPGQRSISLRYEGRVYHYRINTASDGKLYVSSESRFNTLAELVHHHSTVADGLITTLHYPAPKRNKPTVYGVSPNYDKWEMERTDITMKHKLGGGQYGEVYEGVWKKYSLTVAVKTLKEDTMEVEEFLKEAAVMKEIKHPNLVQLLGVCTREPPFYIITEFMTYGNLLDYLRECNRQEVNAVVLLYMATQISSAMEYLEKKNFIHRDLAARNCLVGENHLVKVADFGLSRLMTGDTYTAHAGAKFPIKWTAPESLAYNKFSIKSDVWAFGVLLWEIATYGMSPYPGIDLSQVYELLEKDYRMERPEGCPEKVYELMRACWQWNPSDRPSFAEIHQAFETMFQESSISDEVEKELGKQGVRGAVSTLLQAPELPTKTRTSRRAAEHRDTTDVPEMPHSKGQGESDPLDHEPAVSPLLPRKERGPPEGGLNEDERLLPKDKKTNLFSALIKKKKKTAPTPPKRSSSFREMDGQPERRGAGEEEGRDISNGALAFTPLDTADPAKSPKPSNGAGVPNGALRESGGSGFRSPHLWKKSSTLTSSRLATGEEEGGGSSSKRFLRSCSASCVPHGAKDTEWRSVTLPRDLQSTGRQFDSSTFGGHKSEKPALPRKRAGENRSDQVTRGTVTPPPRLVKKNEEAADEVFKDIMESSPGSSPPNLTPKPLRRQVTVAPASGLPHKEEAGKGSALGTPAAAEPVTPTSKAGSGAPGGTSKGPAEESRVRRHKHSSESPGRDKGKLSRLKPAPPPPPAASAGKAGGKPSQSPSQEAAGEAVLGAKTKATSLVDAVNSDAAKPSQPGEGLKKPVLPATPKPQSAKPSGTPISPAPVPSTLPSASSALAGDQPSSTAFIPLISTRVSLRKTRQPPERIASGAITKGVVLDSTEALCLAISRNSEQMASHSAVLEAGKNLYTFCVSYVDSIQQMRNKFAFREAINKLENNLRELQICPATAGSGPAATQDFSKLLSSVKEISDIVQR
Ras and Rab interactor 1/Tyrosine-protein kinase ABL1, sequence (Q13671 whole entry): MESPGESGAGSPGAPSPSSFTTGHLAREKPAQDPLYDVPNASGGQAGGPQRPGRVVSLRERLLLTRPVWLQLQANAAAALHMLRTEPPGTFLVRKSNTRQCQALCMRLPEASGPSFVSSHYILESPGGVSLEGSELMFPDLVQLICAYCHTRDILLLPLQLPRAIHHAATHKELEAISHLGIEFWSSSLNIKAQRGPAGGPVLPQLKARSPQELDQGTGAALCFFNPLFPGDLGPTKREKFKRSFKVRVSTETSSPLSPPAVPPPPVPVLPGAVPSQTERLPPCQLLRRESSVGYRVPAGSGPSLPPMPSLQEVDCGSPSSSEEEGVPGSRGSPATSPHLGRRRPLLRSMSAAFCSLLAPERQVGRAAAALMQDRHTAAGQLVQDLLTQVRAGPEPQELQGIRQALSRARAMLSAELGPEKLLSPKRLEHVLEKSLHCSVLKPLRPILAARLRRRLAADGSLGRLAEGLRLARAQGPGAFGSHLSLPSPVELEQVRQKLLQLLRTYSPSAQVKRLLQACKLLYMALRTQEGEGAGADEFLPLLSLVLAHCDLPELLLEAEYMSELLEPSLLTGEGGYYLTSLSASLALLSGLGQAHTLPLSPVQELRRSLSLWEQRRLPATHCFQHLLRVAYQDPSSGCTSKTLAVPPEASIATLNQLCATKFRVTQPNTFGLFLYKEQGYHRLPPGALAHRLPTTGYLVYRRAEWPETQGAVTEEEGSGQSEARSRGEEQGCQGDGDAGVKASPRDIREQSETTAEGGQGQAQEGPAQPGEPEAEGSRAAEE

In the case of `CC1=CC(C)(C)Nc2ccc(OC(=O)CN3C(=O)c4cccc5cccc(c45)C3=O)cc21`, the IC50 [1] is reported as 33 µM (active), the IC50 [2] is reported as 64.2 µM (inactive) and the IC50 [3] is reported as 6.95 µM (active).
With `O=C(NCCCn1ccnc1)C(=O)NCC1OCCCN1S(=O)(=O)c1ccccc1` (centres undefined) the EC50 [4] was 17.5 µM (active), the EC50 [5] was > 120 µM (not active) and the EC50 [6] was > 120 µM (not active). The AC50 [7] was 80 µM (active).
In the case of `CCn1c(=O)c2c(cnn2C)c2ccccc21`, the IC50 [8] is reported as > 79 µM (inactive), the AC50 [9] is reported as 35.3 µM (active) and the IC50 [10] is reported as 46.2 µM (inactive).
With `O=S(=O)(NC1CC1)c1ccc(S(=O)(=O)N2CCCc3ccccc32)cc1` the IC50 [11] was 6.07 µM (active), the AC50 [12] was 28.3 µM (active) and the IC50 [13] was 6.62 µM (active). For the same compound, the AC50 [14] was 16.9 µM (active), the IC50 [15] was > 88.8 µM (inactive) and the IC50 [16] was 18.2 µM (inactive). The IC50 [17] was > 66.2 µM (inactive) and the IC50 [18] was 6.71 µM (active).
In the case of `O=C(c1ccc(Br)s1)N1CCN(Cc2ccc3c(c2)OCO3)CC1`, the AC50 [19] is reported as 1.64 µM (active).
For `O=C1OCCC1Sc1nc2cc(Cl)ccc2n1Cc1ccccc1` (centres undefined), the IC50 [20] was > 64.6 µM (inactive) and the IC50 [21] was > 64.6 µM (inactive).
For `CCOC(=O)CCCCC(=O)c1[nH]c(O)nc1CSc1nc(C)cc(O)n1`, the IC50 [22] was 0.192 µM (active) and the AC50 [23] was 8.18 µM (active).
For `Cc1ccccc1-c1nc(-c2ccc(NC(=O)c3ccc4c(c3)OCO4)cc2)no1`, the EC50 [24] was > 89.1 µM (inactive).
For `Cc1cc2nccc(-c3ccc(Cl)c([N+](=O)[O-])c3)n2n1`, the IC50 [20] was > 64.6 µM (inactive) and the IC50 [21] was > 64.6 µM (inactive).
For `COc1cccc(OP(=O)(Nc2ccccc2)Oc2cccc(OC)c2)c1`, the IC50 [11] was 14.5 µM (inactive), the IC50 [13] was > 50 µM (inactive) and the IC50 [15] was > 88.8 µM (inactive). For the same compound, the IC50 [16] was > 49.7 µM (inactive), the IC50 [17] was > 66.2 µM (inactive) and the IC50 [18] was 9.26 µM (active).
With `COc1cc(OC)c(C(=O)Nc2cccnc2)cc1OC` the AC50 [19] was 1.81 µM (active).
With `N#CC(C#N)c1ccnc2ccccc12` the IC50 [8] was 40.4 µM (inactive), the AC50 [9] was 11.5 µM (active) and the IC50 [10] was > 79 µM (inactive).
With `CCn1c(C)cs/c1=N/C(=O)c1ccccc1O` the IC50 [11] was 7.37 µM (active), the IC50 [13] was > 50 µM (inactive) and the IC50 [15] was > 88.8 µM (inactive). For the same compound, the IC50 [25] was 40.7 µM (not active), the IC50 [16] was > 49.8 µM (inactive) and the IC50 [17] was > 66.3 µM (inactive). The IC50 [18] was 2.69 µM (active).
With `O=C(NC1CCCCC1)C(c1ccnc2ccccc12)n1c(=O)c(-c2ccco2)nc2ccccc21` (centres undefined) the IC50 [3] was 2.23 µM (active).
